Experimental data taken from patent US20050208496A1, “Methods of testing for bronchial asthma or chronic obstructive pulmonary disease” (Genox Research, Inc., priority 2002, published 2005).

Tested on: respiratory epithelial cells
Settings: lot 2 Day 7 AI

With “IL-13: human IL-13 (Peprotech, Inc.) added to the medium at 50 ng/mL to stimulate respiratory epithelial cells” the “AI770116 (70124_at) expression change” value was −5.1, the “AI798733 (64163_at) expression change” value was −3.3 and the “AI829641 (84270_at) expression change” value was −39.5. For the same substance, the “AI917602 (49985_at) expression change” value was −4.1, the “AI923984 33546_at expression change” value was −4.4 and the “AI948584 48086_at expression change” value was −13.1. The “AI971023 48539_at expression change” value was −5.3, the “AI984780 (52384_s_at) expression change” value was −4 and the “AL040936 (45684_at) expression change” value was −4.5. For the same substance, the “AQP5 32909_at expression change” value was −4.2, the “ARHGEF4 36524_at expression change” value was −6.6 and the “ARHV (82231_at) expression change” value was −4. The “AW022213 (79520_at) expression change” value was −5.4, the “AW025596 52634_at expression change” value was −9 and the “AW025596 52637_g_at expression change” value was −20.6. The “B4GALT5 56373_at expression change” value was −2.5, the “BPGM (51261_at) expression change” value was −2.4 and the “CBLB 514_at expression change” value was −3.2. For the same substance, the “CBLB 35632_at expression change” value was −2.1, the “COL12A1 (44730_at) expression change” value was −6.8 and the “CRABP-II 1057_at expression change” value was −12.7. For the same substance, the “CRABP-II 41783_at expression change” value was −11.3, the “Clorf28 50075_at expression change” value was −5.7 and the “DHCR24 (74557_s_at) expression change” value was −6.8. The “DKFZp434K1210 44682_at expression change” value was −2.4, the “DREV1 (63813_at) expression change” value was −2.1 and the “DSC3 (79615_at) expression change” value was −2.4. For the same substance, the “DSC3a, b 47119_at expression change” value was −2.7, the “DSC3a, b 79615_at expression change” value was −2.4 and the “EIF4EBP1 (54152_at) expression change” value was −2.7. The “EVPK 39569_at expression change” value was −2.7, the “FKBP5 (46271_at) expression change” value was −21.2 and the “FLJ10298 (62490_f_at) expression change” value was −5.4. For the same substance, the “FLJ10718 52072_at expression change” value was −8.7, the “FLJ12541 43546_at expression change” value was −7.4 and the “FLJ20048 (49196_at) expression change” value was −2. The “FLJ20373 54030_at expression change” value was −1.7, the “FLJ20500 43853_at expression change” value was −2.4 and the “FLJ23309 45563_f_at expression change” value was −2.4. For the same substance, the “FLJ23516 47534_at expression change” value was −3.2, the “GABRP 40339_at expression change” value was −28 and the “GAS41 (64121_at) expression change” value was −2. The “GJA1 32531_at expression change” value was −5.5, the “GK (61873_at) expression change” value was −2.1 and the “GPD2 42720_at expression change” value was −2.8. The “GSTA3 58023 at expression change” value was −9.1, the “HEY1 44783_s_at expression change” value was −9.2 and the “HIN-1 (46200_at) expression change” value was −38.7. For the same substance, the “HSPC195 44705_at expression change” value was −5.1, the “ID1 36619_r_at expression change” value was −2.5 and the “IL20RA 42969_at expression change” value was −2.9. For the same substance, the “IVL 36355_at expression change” value was −10.6, the “K1IAA1102 (64345_s_at) expression change” value was −4.9 and the “KCNMA1 (47575_g_at) expression change” value was −7. For the same substance, the “KCNMA1 (53796_at) expression change” value was −6.1, the “KIAA0878 (48793_at) expression change” value was −2 and the “KIAA1376 (62972_at) expression change” value was −3.9. The “KIAA1376 (64047_at) expression change” value was −4.2, the “KIAA1547 58531_g_at expression change” value was −2.6 and the “KLF7 (42769_at) expression change” value was −4.7. For the same substance, the “KRT6B (62998_at) expression change” value was −5.5, the “LCE 45605_at expression change” value was −2.6 and the “LMO4 1452_at expression change” value was −3.9. The “LOC51297 (49616_at) expression change” value was −24.3, the “LOC51297 (55440_at) expression change” value was −33.7 and the “LOC51297 (55442_g_at) expression change” value was −33.7. The “LOC51316 (63342_at) expression change” value was −5, the “LOC55893 (64071_at) expression change” value was −2.6 and the “LOC129642 (42065_at) expression change” value was −4.9. For the same substance, the “LOC129642 (58288_at) expression change” value was −4.5, the “LOC131177 (43849_s_at) expression change” value was −13.3 and the “LOC131177 (45394_s_at) expression change” value was −7.1. The “MGC12536 46924_at expression change” value was −3.1, the “MGC14128 55924_at expression change” value was −4.1 and the “MGC14128 (51669_r_at) expression change” value was −5. For the same substance, the “MGC14597 (46030_at) expression change” value was −5.4, the “MGC16207 43412_s_at expression change” value was −2.8 and the “MGC16207 (65876_at) expression change” value was −3.4. For the same substance, the “N52554 47432_at expression change” value was −1.7, the “N71183 52473_at expression change” value was −3 and the “PR01489 57777_at expression change” value was −4.5. The “PSCA (63958_at) expression change” value was −9.8, the “RGC32 (57044_s_at) expression change” value was −2.4 and the “RIN1 1778_g_at expression change” value was −7.5. The “SCNN1B 39682_at expression change” value was −15, the “SCYB14 (65823_at) expression change” value was −2.5 and the “SEMA4B (46709_at) expression change” value was −2.5. For the same substance, the “SERPINA3 (75248_at) expression change” value was −46.4, the “SLC11A3 (45826_at) expression change” value was −3.8 and the “SLC34A2 (48048_at) expression change” value was −4.3. For the same substance, the “SPON2 52576_s_at expression change” value was −5.8, the “SPRR1B 37160_at expression change” value was −2.8 and the “STEAP 40297_at expression change” value was −3.7. For the same substance, the “T52027 (63150_at) expression change” value was −3.5, the “TGFBI (68339_at) expression change” value was −4.9 and the “TNFAIP2 (74633_at) expression change” value was −4.2. The “TNNT1 36113_s_at expression change” value was −12.2, the “TNRC3 41246_at expression change” value was −5 and the “TPM1 36790_at expression change” value was −4.8. For the same substance, the “TPM1 36791_g_at expression change” value was −6, the “TPM1 36792_at expression change” value was −6.3 and the “UCP2 37591_at expression change” value was −45.5. For the same substance, the “UGB 39220_at expression change” value was −62.8, the “VEGFC 1934_s_at expression change” value was −4.3 and the “VIM 34091_s_at expression change” value was −11.6. The “W55956 46700_at expression change” value was −2.7 and the “W72331 49486 at expression change” value was −11.4.
